Measured values published in patent publication US11147272B2, “Pyridone compounds and agricultural and horticultural fungicides comprising the same as active ingredients” (MITSUI CHEMICALS AGRO, INC., priority 2017, dated 2021).

Tests used:
Magnaporthe grisea = assay: whole plant or invertebrate; type: in vivo; conditions: Blast on rice; control value class
Alternaia brassicicola = assay: Test Example C: Alternaria sooty spot on cabbage; type: in vivo; conditions: Alternaria sooty spot on cabbage; control value class
Description: Seeds of a test plant (cabbage variety: Shikidori) were planted and cultivated until the cotyledons extended.
<Control Value> Control value=100{1−(n/3)}

Puccinia recondita = assay: Test Example E: Brown rust on wheat; type: in vivo; conditions: Brown rust on wheat; control value class
Phytophthora infestans = assay: whole plant or invertebrate; type: in vivo; conditions: Late blight on tomato; control value class
Botrytis cinerea = assay: Test Example B: Gray mold on tomato; conditions: Gray mold on tomato; control value class
Plasmopara viticola = assay: Test Example G: Downy mildew on vine; conditions: Downy mildew on vine; 250 ppm spray, 7 to 10 days after inoculation
Description: Seeds of a test plant (grape variety: Neomuscat) were planted and cultivated until three to four first leaves appeared. In the test, the inventive compounds were dissolved into dimethyl sulfoxide-methanol mixture solution (volume ratio: 9/1), and the resultant solutions were diluted with well water to a concentration of 250 ppm to obtain the drug solutions. The drug solutions were sprayed to the test plant (2.5 ml/pot). After the drug solutions dried, a zoosporangia suspension (1-2×10^4 zoosporangia/ml) of Plasmopara viticola was inoculated to the plant by spraying. After the inoculation, the plant was kept in a mist chamber at room temperature of 20° C. for about 24 hours to promote the onset of disease. The degrees of disease development were investigated 7 to 10 days after the inoculation, and the effectiveness of the drug solutions was evaluated.
In Test Examples described above, the degrees of disease development were evaluated in increments of 0.05 from 0 (as no incidence of disease) to 3 (as the degree of disease development in an untreated plant group). Further, control values were calculated using the following equation based on the degree of disease development.
n=Degree of disease development in each treated group

[1] = tested on: Colletotrichum orbiculare; assay: Test Example H: Anthracnose on cucumber; conditions: Anthracnose on cucumber; 250 ppm spray, 6 to 10 days after inoculation
[2] = tested on: Blumeria graminis f. sp. hordei; assay: Test Example D: Powdery mildew on barley; conditions: Powdery mildew on barley; control value class

SMILES | Test A control value (Magnaporthe grisea) | Test C control value (Alternaia brassicicola) | Test E control value (Puccinia recondita) | Test F control value (Phytophthora infestans) | Test B control value (Botrytis cinerea) | Test G control value (Plasmopara viticola) | Test H control value [1] | Test D control value [2]
CCn1c(-c2ccc(OC)cc2)c(C(C)(OC)C(C)C)cc(Cl)c1=O (stereo not shown) [compound 224] | L (50% or less control value) | L (50% or less control value) | H (more than 50% control value) | L (50% or less control value) | H (more than 50% control value) | L (50% or less control value) | L (50% or less control value) | L (50% or less control value)
CCn1c(-c2ccc(Br)cc2Cl)c(CC(C)C)ccc1=O [compound 225] | L (50% or less control value) | H (more than 50% control value) | H (more than 50% control value) | L (50% or less control value) | H (more than 50% control value) | L (50% or less control value) | L (50% or less control value) | H (more than 50% control value)
CCOc1cc(F)c(-c2c(C(C)(O)C(C)C)cc(Cl)c(=O)n2CC)c(F)c1 (stereo not shown) [compound 226] | H (more than 50% control value) | H (more than 50% control value) | H (more than 50% control value) | L (50% or less control value) | H (more than 50% control value) | L (50% or less control value) | H (more than 50% control value) | L (50% or less control value)
CCOc1cc(F)c(-c2c(C(C)(OC)C(C)C)cc(Cl)c(=O)n2CC)c(F)c1 (stereo not shown) [compound 227] | H (more than 50% control value) | H (more than 50% control value) | H (more than 50% control value) | L (50% or less control value) | H (more than 50% control value) | H (more than 50% control value) | H (more than 50% control value) | H (more than 50% control value)
CCOC(C)(c1cc(Cl)c(=O)n(CC)c1-c1c(F)cc(F)cc1F)C(C)C (stereo not shown) [compound 228] | H (more than 50% control value) | H (more than 50% control value) | H (more than 50% control value) | L (50% or less control value) | H (more than 50% control value) | H (more than 50% control value) | H (more than 50% control value) | H (more than 50% control value)
CCCOC(C)(c1cc(Cl)c(=O)n(CC)c1-c1c(F)cc(F)cc1F)C(C)C (stereo not shown) [compound 229] | H (more than 50% control value) | H (more than 50% control value) | H (more than 50% control value) | L (50% or less control value) | H (more than 50% control value) | H (more than 50% control value) | H (more than 50% control value) | H (more than 50% control value)
CCn1c(-c2c(F)cc(F)cc2F)c(C#N)cc(Cl)c1=O [compound 230] | L (50% or less control value) | L (50% or less control value) | L (50% or less control value) | L (50% or less control value) | L (50% or less control value) | H (more than 50% control value) | L (50% or less control value) | L (50% or less control value)
CCn1c(-c2c(F)cc(F)cc2F)c(C(O)C2CCCC2)cc(Cl)c1=O (stereo not shown) [compound 231] | H (more than 50% control value) | H (more than 50% control value) | H (more than 50% control value) | H (more than 50% control value) | H (more than 50% control value) | H (more than 50% control value) | H (more than 50% control value) | H (more than 50% control value)
CCn1c(-c2c(F)cc(F)cc2F)c(C(=O)C2CCCC2)cc(Cl)c1=O [compound 232] | H (more than 50% control value) | H (more than 50% control value) | H (more than 50% control value) | L (50% or less control value) | H (more than 50% control value) | L (50% or less control value) | L (50% or less control value) | H (more than 50% control value)
CCn1c(-c2ccc(C#N)cc2)c(C(O)C(C)C)cc(Cl)c1=O (stereo not shown) [compound 233] | L (50% or less control value) | H (more than 50% control value) | L (50% or less control value) | L (50% or less control value) | L (50% or less control value) | L (50% or less control value) | L (50% or less control value) | L (50% or less control value)
CCn1c(-c2ccc(C#N)cc2)c(C(=O)C(C)C)cc(Cl)c1=O [compound 234] | L (50% or less control value) | H (more than 50% control value) | L (50% or less control value) | L (50% or less control value) | L (50% or less control value) | L (50% or less control value) | L (50% or less control value) | L (50% or less control value)
CCn1c(-c2ccc(C#N)cc2)c(C(C)(O)C(C)C)cc(Cl)c1=O (stereo not shown) [compound 235] | L (50% or less control value) | H (more than 50% control value) | H (more than 50% control value) | L (50% or less control value) | L (50% or less control value) | L (50% or less control value) | L (50% or less control value) | L (50% or less control value)
CCn1c(-c2ccc(Br)cc2Cl)c(CC(C)C)cc(Cl)c1=O [compound 236] | H (more than 50% control value) | H (more than 50% control value) | H (more than 50% control value) | L (50% or less control value) | H (more than 50% control value) | L (50% or less control value) | L (50% or less control value) | H (more than 50% control value)
CCn1c(-c2ccc(Br)cc2Cl)c(CC(C)C)cc(Br)c1=O [compound 237] | L (50% or less control value) | H (more than 50% control value) | H (more than 50% control value) | L (50% or less control value) | H (more than 50% control value) | L (50% or less control value) | L (50% or less control value) | H (more than 50% control value)
CCn1c(-c2ccc(OC)cc2Cl)c(CC(C)C)ccc1=O [compound 238] | H (more than 50% control value) | H (more than 50% control value) | H (more than 50% control value) | L (50% or less control value) | H (more than 50% control value) | H (more than 50% control value) | H (more than 50% control value) | H (more than 50% control value)
CCn1c(-c2ccc(OC)cc2Cl)c(CC(C)C)cc(Cl)c1=O [compound 239] | H (more than 50% control value) | H (more than 50% control value) | H (more than 50% control value) | L (50% or less control value) | H (more than 50% control value) | L (50% or less control value) | H (more than 50% control value) | H (more than 50% control value)
CCn1c(-c2ccc(OC)cc2Cl)c(CC(C)C)cc(Br)c1=O [compound 240] | H (more than 50% control value) | H (more than 50% control value) | H (more than 50% control value) | L (50% or less control value) | H (more than 50% control value) | H (more than 50% control value) | H (more than 50% control value) | H (more than 50% control value)
